Data as given in patent US8921595B2, “Protein Arginine Deiminase inhibitors as novel therapeutics for rheumatoid arthritis and cancer” (University of South Carolina, priority 2009, dated 2014).

Columns and labels:
HL-60 cells [1] = assay: Combination with doxorubicin, HL-60 cell viability; type: cell-based, human; conditions: for effects of doxorubicin in combination: HL-60 cells, combination with doxorubicin; for viability of cancer cells in combination with doxorubicin: in conjunction with doxorubicin
Experimental: Although o-F- and o-Cl-amidine show some efficacy for killing cancer derived cells, the overall effects are modest. In light of such results, these inhibitors were tested in a combination with doxorubicin, a known chemotherapeutic that is used for the treatment of numerous cancers, often as part of a combination therapy. In accordance with the present disclosure, the additive effects of doxorubicin was tested with varying concentrations of both o-F- and o-Cl-amidine on HL-60 cell viability.
HL-60 and MCF-7 cells were grown to confluence (1×10^6 cells/mL) in the appropriate media. 50 μL of the MCF-7 cells were plated into each well of a 96 well plate with 40 μL of DMEM. Cells were allowed to adhere to the plate for 15 h at 37° C. and 5% CO2. For the HL-60 cells, 90 μL of the cells were added to each well of a 96 well plate. o-F-amidine, o-Cl-amidine, doxorubicin, or ATRA (10 μL, 100 nM to 100 μM) were added to the plates and allowed to incubate with the cells for 24 h. Cell viability was determined using the CellTiter 96 Non-radioactive Cell Proliferation Assay (Promega). Cell viability was quantified as the percentage of control absorbance. Each condition was performed in triplicate. The use of 1% triton served as a 100% killing control. When possible, EC50 values were determined by fitting the dose response data to equation 2 using GraFit (version 5.0.11)^33, Fractional Activity=1/(1+([1]/EC50) (eq 2) where [I] is the concentration of inhibitor (e.g., doxorubicin) and EC50 is the concentration of inhibitor that yields half-maximal cell survival. Western Blotting.

HL-60 cells [2] = assay: Cytotoxicity / cell viability (CellTiter 96); type: cell-based, human; conditions: 24 h
Excerpt: To further evaluate the […] effects of these compounds, their ability to inhibit the growth of HL60 cells, a leukemic cell line, was characterized. […] Such finding prompted further investigation into this phenomenon and led to the discovery that for the HL-60 cell line, the cells that remained viable were actually being differentiated into non-cancerous granulocytes. Evidence of this differentiation includes the increased expression of PAD4 (FIG. 6).
HL-60 human promyelocytic leukemia cells were obtained from the ATCC (Manassas, Va.). The cells were cultured in RPMI 1640 media supplemented with 10% FBS and 1% Pencillin-Streptomycin, in a 5% CO2 incubator at 37° C. MCF-7 cells were cultured in DMEM media supplemented with 10% FBS and 1% Penicillin-Streptomycin, in a 5% CO2 incubator at 37° C.
HL-60 and MCF-7 cells were grown to confluence (1×10^6 cells/mL) in the appropriate media. […] Cell viability was determined using the CellTiter 96 Non-radioactive Cell Proliferation Assay (Promega). Cell viability was quantified as the percentage of control absorbance. […] When possible, EC50 values were determined by fitting the dose response data to equation 2 using GraFit (version 5.0.11)^33, Fractional Activity=1/(1+([1]/EC50) (eq 2) where [I] is the concentration of inhibitor (e.g., doxorubicin) and EC50 is the concentration of inhibitor that yields half-maximal cell survival. Western Blotting.

Row | SMILES | effects of doxorubicin in combination (HL-60 cells [1]) | viability of cancer cells in combination with doxorubicin (HL-60 cells [1]) | cell viability in HL-60 cells (HL-60 cells [2])
1 | N=C(CCl)NCCC[C@H](NC(=O)c1ccccc1C(=O)O)C(N)=O [o-Cl-amidine, N-α-(2-carboxyl)benzoyl-N^5-(2-chloro-1-iminoethyl)-L-ornithine amide] | potentiated | reduced to levels that are undetectable above the background signal | reduce cell viability
2 | N=C(CF)NCCC[C@H](NC(=O)c1ccccc1C(=O)O)C(N)=O [o-F-amidine, N-α-(2-carboxyl)benzoyl-N^5-(2-fluoro-1-iminoethyl)-L-ornithine amide] | potentiated | reduced to levels that are undetectable above the background signal | reduce cell viability
